Results from patent US8168639B2, “Heterotricyclic compounds as serotonergic and/or dopaminergic agents and uses thereof” (ATIR Holding S.A., priority 2006, dated 2012).

Key:
[1] = target: T1, D4.4 type dopamine receptor (human recombinant, CHO cells) (Homo sapiens, UniProt P21917); assay: Competitive binding to D4.4 dopamine receptor, [3H]-YM-09151-2 radioligand; details: [3H]-YM-09151-2 0.3 nM; for D4.4(h) receptor Competitive Binding, % at 100 nM: 100 nM compound; for D4.4(h) receptor Competitive Binding, % at 1 μM: 1 μM compound
T1 construct: expressed in transfected cells; host or cells: CHO cells
T1 sequence (P21917 1-419): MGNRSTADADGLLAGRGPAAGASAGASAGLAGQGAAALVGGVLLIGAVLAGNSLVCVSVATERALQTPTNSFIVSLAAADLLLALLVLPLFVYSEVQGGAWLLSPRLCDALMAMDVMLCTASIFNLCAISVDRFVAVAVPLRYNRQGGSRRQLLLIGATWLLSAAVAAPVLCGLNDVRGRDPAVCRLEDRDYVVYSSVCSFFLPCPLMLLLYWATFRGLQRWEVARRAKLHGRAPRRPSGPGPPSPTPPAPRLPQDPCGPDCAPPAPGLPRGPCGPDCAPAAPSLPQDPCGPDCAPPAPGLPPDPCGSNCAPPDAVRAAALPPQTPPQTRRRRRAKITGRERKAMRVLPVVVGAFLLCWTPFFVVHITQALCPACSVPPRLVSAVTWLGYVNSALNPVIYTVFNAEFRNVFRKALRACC
Protocol: Compounds were assayed for competitive binding to the D4.4 type dopamine receptors, which is expressed as human recombinant proteins in CHO cells, as described, for example, in Jarvis et al. (1973); Van Tol et al. (1991) and Van Tol et al. (1992).
Determination of binding to D4.4 receptor was performed using [^3H]-YM-09151-2 (70-87 Ci/mmol, 0.3 nM), as a radioligand, in with the presence of various concentrations of the tested compound. Reactions were carried out in 50 mM TRIS-HCl (pH 7.4) containing 5 mM MgCl2, 5 mM EDTA, 5 mM KCl and 1.5 mM CaCl2, for 60 minutes at 22° C. The reaction was terminated by rapid vacuum filtration onto glass fiber filters. Radioactivity trapped onto the filters was determined (counted) and compared to control values in order to accurately evaluate any interaction of the tested compound(s) with the cloned dopamine D4.4 binding site.

[2] = target: T2, 5-HT1A type serotonin receptor (human recombinant, HEK-293 cells) (Homo sapiens, UniProt P08908); assay: Competitive binding to 5-HT1A receptor, [3H]-8-OH-DPAT radioligand; details: [3H]-8-OH-DPAT 0.5 nM; for 5HT1A receptor Binding % at 1 nM: 1 nM compound; for 5HT1A receptor Binding % at 10 nM: 10 nM compound; for 5HT1A receptor Binding % at 100 nM: 100 nM compound; for 5HT1A receptor Binding % at 1 μM: 1 μM compound; for 5HT1A receptor Binding % at 5 μM: 5 μM compound
T2 construct: expressed in transfected cells; host or cells: HEK-293 cells
T2 sequence (P08908 1-422): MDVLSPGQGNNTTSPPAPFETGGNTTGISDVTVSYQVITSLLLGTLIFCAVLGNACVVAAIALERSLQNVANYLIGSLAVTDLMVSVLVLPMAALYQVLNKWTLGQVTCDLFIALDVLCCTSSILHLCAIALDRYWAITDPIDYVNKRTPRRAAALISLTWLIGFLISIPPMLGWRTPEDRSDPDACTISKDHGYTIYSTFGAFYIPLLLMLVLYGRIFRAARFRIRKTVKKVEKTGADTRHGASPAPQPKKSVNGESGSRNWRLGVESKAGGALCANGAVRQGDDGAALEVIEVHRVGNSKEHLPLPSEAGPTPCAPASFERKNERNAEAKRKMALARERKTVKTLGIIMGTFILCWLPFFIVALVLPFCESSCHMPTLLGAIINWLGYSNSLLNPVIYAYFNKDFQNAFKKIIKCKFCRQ
Protocol: Compounds were assayed for competitive binding to the 5-HT1A type serotonin receptor. The receptor is expressed as human recombinant proteins in HEK-293 cells, as described, for example, in Hoyer et al. (1985) and Schoeffter and Hoyer (1989).
Determination of binding to 5-HT1A receptor was performed using [^3H]-8-OH-DPAT, a 5-HT1A receptor ligand (Hoyer et al., 1985), as a radioligand (221 Ci/mmol, 0.5 nM) in the presence of various concentrations of the tested compound. Reactions were carried out in 50 mM Tris-HCl (pH 7.4) containing 10 mM MgSO4, 0.5 mM EDTA, and 0.1% ascorbic acid for 60 minutes at 25° C. The reaction was terminated by rapid vacuum filtration onto glass fiber filters. Radioactivity trapped onto the filters was determined (counted) and compared to control values in order to accurately evaluate any interaction of the test compound(s) with the cloned 5-HT1A receptor binding site.

[3] = target: T3, Human recombinant serotonin 5-HT1A receptors expressed in CHO cells (Homo sapiens, UniProt P08908); assay: [35S]GTPγS 5-HT1A activity assay; assay type: biochemical; details: 10 μM compound; [35S]GTPγS binding increase relative to serotonin
T3 construct: expressed in transfected cells; host or cells: CHO cells
T3 sequence (P08908 1-422): T2 sequence (P08908 1-422)
Protocol: Human recombinant serotonin 5-HT1A receptors expressed in CHO cells were used. The tested compound were incubated with cell membranes and [^35S]GTPγS for 30 minutes in modified HEPES buffer (pH=7.4). Test compound-induced increase of [^35S]GTPγS binding was quantified relative to serotonin-induced increase of [^35S]GTPγS. Compounds were tested at concentrations of 10, 1 and 0.1 μM.

Sprague Dawley rats = assay: Penile erection test in rats; assay type: in vivo, rat; details: 0.3 µmol/kg, subcutaneous; for Percent of animals showing erection response: moderate to strong erection
Protocol: Penile erection was tested in Sprague Dawley rats. The experimental group included 50 adult male rats, with body weights in the range of 312-330 grams. The animals were housed for acclimatization in a cage, and water and food were supplied ad libitum.
Penile erection experiments were carried out in morning hours between 9 AM and 11 AM, in a dark room with a red light source. Control groups included 10 animals that received saline as a placebo, and 10 animals that received 0.3 μmol/kg body weight of apomorphine hydrochloride in 1 ml of saline, as a positive control. […]
Penile erection was tested in Sprague Dawley rats, according to the protocol described hereinabove.

[4] = test system: Male ferrets (Mustela putorius furo); assay: Ferret emesis model; assay type: in vivo, ferret (Mustela putorius furo); details: 0.3 μmol/kg subcutaneous, observed 90 minutes
Protocol: Male ferrets (Mustela putorius furo) were made to fast overnight before experiments. 18 animals (weighing 0.8-1.0 kg) were divided into the following three groups of six:
(1) test group—received the compound being tested, e dissolved in 1 ml saline at a dose of 0.3 μmol/kg body weight, administered subcutaneously;
(2) negative control—received saline; and
(3) positive control—received apomorphine.
Animals were placed individually in observation cages and received cat food 30 minutes before the experiment.
One ml of saline was administered subcutaneously. Apomorphine and the test compound were dissolved in 1 ml saline at a dose of 0.3 μmol/kg body weight. Induced emesis or nausea was determined by direct observation during 90 minutes following drug injection. Nausea was characterized by behavior such as licking, gagging, backing, head burying and intense abdominal grooming. Emesis was characterized by rhythmic abdominal contractions.

Row | D4.4(h) receptor Competitive Binding, % at 100 nM [1] [%] | D4.4(h) receptor Competitive Binding, % at 1 μM [1] [%] | 5HT1A receptor Binding % at 1 nM [2] | 5HT1A receptor Binding % at 10 nM [2] | 5HT1A receptor Binding % at 100 nM [2] | 5HT1A receptor Binding % at 1 μM [2] | 5HT1A receptor Binding % at 5 μM [2] | % activation of 5HT1A at 10 μM [3] | Compound | Number of animals showing moderate to strong erection (Sprague Dawley rats) | Time during which erection was shown (Sprague Dawley rats) [min] | Percent of animals showing erection response (Sprague Dawley rats) [%] | Number of ferrets showing signs of nausea and/or emesis [4]
1 | 16.69 | 81.97 | active | active | active | active | active | active | O=c1[nH]c(CN2CCC(c3ccccc3)CC2)nc2sc3c(c12)CCCC3 [Compound B-93] |  |  |  | 
2 | 19.14 | 89.02 | 0.9% | 20.23% | 44.56% | 62.77% | 97.67% | 50% | CCOc1ccccc1N1CCN(Cc2nc3sc4c(c3c(=O)[nH]2)CCCC4)CC1 [Compound B-94] |  |  |  | 
3 | 32.26 | 86.68 | active | active | active | active | active | active | O=c1[nH]c(CN2CCN(c3cccc(O)c3)CC2)nc2sc3c(c12)CCCC3 [Compound B-95] |  |  |  | 
4 | 87.6 | 102.45 | active | active | active | active | active | active | Oc1cccc(N2CCN(Cc3cc4c(cn3)[nH]c3ccccc34)CC2)c1 [Compound B-96] |  |  |  | 
5 | 74.27 | 100.99 | 1.78% | 37.48% | 75.08% | 99.45% | 100.34% | 48% | CCOc1ccccc1N1CCN(Cc2cc3c(cn2)[nH]c2ccccc23)CC1 [Compound B-97] |  |  |  | 
6 | 97.43 | 102.4 | active | active | active | active | active | active | COc1ccccc1N1CCN(Cc2cc3c(cn2)[nH]c2ccccc23)CC1 [Compound B-99] | 26 of the 30 animals | 45 to 70 | 87 | none
7 |  |  |  |  |  |  |  |  | CN1CCc2cccc3c2[C@H]1Cc1ccc(O)c(O)c1-3 [apomorphine, reference compound] |  | 15 to 25 | 70 | 4 of the 6 ferrets
